Molecular target: T1, BTK C481S (Homo sapiens, UniProt Q06187, C481S)
T1 construct: His-TEV-hsBTK(328-659)(C481S) from the Merck Serono Protein Purification Laboratory; His (N); TEV (protease cleavage site) (N)
Test: Assay B: Microfluidic Off-Chip Mobility Shift Assay against BTK C481S enzyme
Format: biochemical
Conditions: His-TEV-hsBTK(328-659)(C481S), 90 min, 25° C
Description: Assay B: Microfluidic Off-Chip Mobility Shift Assay Protocol for Potency Assessment Against BTK C481S Enzyme The protocol below describes a microfluidic, off-chip mobility shift kinase assay to measure inherent potency of compounds against BTK C481S enzyme. The mechanics of the assay platform are described by the vendor (PerkinElmer, Hopkinton, Mass.) on their website at the following URL: […].com. Briefly, 2.5× stocks of His-TEV-hsBTK(328-659)(C481S) from the Merck Serono Protein Purification Laboratory in Darmstadt, Germany (PCS, […]/234), 1.6×ATP and appropriate […] peptide substrate (FITC-AHA-[…]-NH2; Tufts University Core Facility custom synthesis) were prepared in kinase reaction buffer consisting of 25 mM MgCl2, 0.015% Brij-35 (30%), 100 mM HEPES, pH 7.5, and 10 mM DTT. […] Terminated reactions were monitored at -2 PSI, -3000 V/-700 Volts in a LabChip 3000 plate reader from Caliper Life Sciences, a PerkinElmer Company (Hopkinton, Mass.), and the activity was quantified by laser-induced fluorescence measuring the charge/mass difference between substrate and product resulting from peptide phosphorylation. IC50 and efficacy were determined by plotting log [Inhibitor] vs. % Activity in GeneData Screener (Basel, Switzerland).

T1 sequence (Q06187 328-659 C481S): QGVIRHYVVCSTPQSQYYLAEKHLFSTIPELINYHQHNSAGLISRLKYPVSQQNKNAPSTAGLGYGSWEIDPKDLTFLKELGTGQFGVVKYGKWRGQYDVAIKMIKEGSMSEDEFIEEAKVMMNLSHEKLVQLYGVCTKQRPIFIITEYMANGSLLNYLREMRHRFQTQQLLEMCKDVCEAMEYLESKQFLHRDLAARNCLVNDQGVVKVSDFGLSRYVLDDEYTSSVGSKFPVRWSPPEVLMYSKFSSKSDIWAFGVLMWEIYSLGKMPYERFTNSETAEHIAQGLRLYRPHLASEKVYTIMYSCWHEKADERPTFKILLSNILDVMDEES

`CC(C)(C)c1noc(C(=O)NCc2ccc(-c3ccnc4[nH]c(-c5cnn(C6COC6)c5)nc34)cc2F)n1` [Example 128] was tested, and the IC50 was under 100 nM.
